Results published in ChEMBL document CHEMBL6096648, “Discovery of phenazine derivatives as a new class of non-classical ferroptosis inhibitors and efficacy evaluation on a mouse model of liver injury” (Eur J Med Chem, 2025).
Calls of active or inactive are those of the source. The calls are words filed in the database; no cut-off is given here.

Key:
ES-2 [1] = assay: Inhibition of erastin-induced ferroptosis in human ES2 cells assessed as increase in cell viability incubated for 48 hrs in presence of erastin by MTT assay; format: functional, cell-based; settings: ES-2, 48 h
LX-2 = assay: Inhibition of erastin-induced ferroptosis in human LX2 cells assessed as increase in cell viability incubated for 48 hrs in presence of erastin by MTT assay; format: functional, cell-based; settings: LX-2, 48 h
ES-2 [2] = assay: Inhibition of erastin-induced ferroptosis in human ES2 cells assessed as DMT1 protein expression at 0.01 to 1 uM incubated for 8 to 10 hrs by western blot analysis; format: functional, cell-based; settings: dose 0.01-1 µM, time 8-10 hrs
ES-2 [3] = assay: Inhibition of ferritinophagy in erastin-stimulated human ES2 cells assessed as increase in ferritin protein expression incubated for 8 to 10 hrs by western blot analysis; format: functional, cell-based; settings: dose 0.01-1 µM, time 8-10 hrs
ES-2 [4] = assay: Inhibition of ferritinophagy in erastin-stimulated human ES2 cells assessed as increase in NCOA4 gene expression at 0.01 to 1 uM by qRT-PCR analysis; format: functional, cell-based; settings: dose 0.01-1 µM
ES-2 [5] = assay: Inhibition of erastin-induced ferroptosis in human ES2 cells assessed as inhibition of lipid peroxidation by measuring decrease in MDA content at 0.01 uM measured after 8 to 10 hrs; format: functional, cell-based; settings: time 8-10 hrs
ES-2 [6] = assay: Inhibition of erastin-induced ferroptosis in human ES2 cells assessed as GPX4 protein expression at 0.01 to 1 uM incubated for 8 to 10 hrs by western blot analysis; format: functional, cell-based; settings: dose 0.01-1 µM, time 8-10 hrs
ES-2 [7] = assay: Inhibition of erastin-induced ferroptosis in human ES2 cells assessed as ERK protein expression at 0.01 to 1 uM incubated for 8 to 10 hrs by western blot analysis; format: functional, cell-based; settings: dose 0.01-1 µM, time 8-10 hrs
[8] = Metal chelating activity assessed as compound-Fe2+ complex formation at 10 uM incubated for 5 mins by ferrozine-based colorimetric assay
Mus musculus [9] = assay: Protection against APAP-induced acute liver injury C57BL/6 mouse model assessed as decrease in liver MDA content at 3 mg/kg, ip administered 2 hrs prior to APAP injection and measured after 6 hrs; format: functional, organism-based; settings: time 8.0 hrs
[10] = Potency index, ratio of ferrostatin-1 EC50 to test compound EC50 for inhibition of erastin-induced ferroptosis in human ES2 cells; format: functional, ES-2
[11] = Antioxidant activity assessed as DPPH radical scavenging activity at 1 to 50 uM incubated for 10 mins by DPPH assay; format: functional; settings: dose 1-50 µM
ES-2 [12] = assay: Inhibition of erastin-induced ferroptosis in human ES2 cells assessed as xCT protein expression at 0.01 to 1 uM incubated for 8 to 10 hrs by western blot analysis; format: functional, cell-based; settings: dose 0.01-1 µM, time 8-10 hrs
ES-2 [13] = assay: Inhibition of erastin-induced ferroptosis in human ES2 cells assessed as increase in intracellular GSH content at 0.01 to 1 uM measured after 8 to 10 hrs; format: functional, cell-based; settings: dose 0.01-1 µM, time 8-10 hrs
ES-2 [14] = assay: Inhibition of erastin-induced ferroptosis in human ES2 cells assessed as FPN protein expression at 0.01 to 1 uM incubated for 8 to 10 hrs by western blot analysis; format: functional, cell-based; settings: dose 0.01-1 µM, time 8-10 hrs
THP-1 = assay: Inhibition of LPS/nigericin-stimulated pyroptosis in PMA-differentiated human THP-1 cells assessed as cell viability at 10 uM treated with LPS for 4 hrs followed by incubation with compound and nigericin for 30 mins by MTT assay; format: functional, cell-based
ES-2 [15] = assay: Inhibition of erastin-induced ferroptosis in human ES2 cells assessed as NRF2 protein expression at 0.01 to 1 uM incubated for 8 to 10 hrs by western blot analysis; format: functional, cell-based; settings: dose 0.01-1 µM, time 8-10 hrs
ES-2 [16] = assay: Inhibition of erastin-induced ferroptosis in human ES2 cells assessed as reduction in cytosolic ROS accumulation at 0.01 to 1 uM measured after 8 to 10 hrs by DCFH-DA staining based fluorescence analysis; format: functional, cell-based; settings: dose 0.01-1 µM, time 8-10 hrs
ES-2 [17] = assay: Inhibition of ferritinophagy in erastin-stimulated human ES2 cells assessed as increase in FTL gene expression at 0.01 to 1 uM by qRT-PCR analysis; format: functional, cell-based; settings: dose 0.01-1 µM
Mus musculus [18] = assay: Protection against APAP-induced acute liver injury C57BL/6 mouse model assessed as decrease in serum AST content at 3 mg/kg, ip administered 2 hrs prior to APAP injection and measured after 6 hrs; format: functional, organism-based; settings: time 8.0 hrs
HT-29 = assay: Inhibition of TNF-alpha/Smac-mimetic/Z-VAD-FMK-induced necrosis in human HT-29 cells assessed as cell viability at 10 uM incubated for 24 hrs in presence of TNF-alpha/Smac-mimetic/Z-VAD-FMK by MTT assay; format: functional, cell-based
ES2 = assay: Effect on ERK1/2 phoshorylation in erastin-stimulated human ES2 cells at 0.01 to 1 uM incubated for 8 to 10 hrs by western blot analysis; format: cell-based; settings: dose 0.01-1 µM, time 8-10 hrs
ES-2 [19] = assay: Inhibition of erastin-induced ferroptosis in human ES2 cells assessed as TFR1 protein expression at 0.01 to 1 uM incubated for 8 to 10 hrs by western blot analysis; format: functional, cell-based; settings: dose 0.01-1 µM, time 8-10 hrs
ES-2 [20] = assay: Inhibition of staurosporine-induced apoptosis in human ES2 cells assessed as cell viability at 10 uM incubated for 24 hrs in presence of staurosporine by MTT assay; format: functional, cell-based
Mus musculus [21] = assay: Protection against APAP-induced acute liver injury C57BL/6 mouse model assessed as decrease in liver tissue damage at 3 mg/kg, ip administered 2 hrs prior to APAP injection and measured after 6 hrs by Hematoxylin-Eosin staining based analysis; format: functional, organism-based; settings: time 8.0 hrs
ES-2 [22] = assay: Inhibition of erastin-induced ferroptosis in human ES2 cells assessed as FACL4 protein expression at 0.01 to 1 uM incubated for 8 to 10 hrs by western blot analysis; format: functional, cell-based; settings: dose 0.01-1 µM, time 8-10 hrs
ES-2 [23] = assay: Inhibition of ferritinophagy in erastin-stimulated human ES2 cells assessed as increase in NCOA4 protein expression incubated for 8 to 10 hrs by western blot analysis; format: functional, cell-based; settings: dose 0.01-1 µM, time 8-10 hrs
Mus musculus [24] = assay: Protection against APAP-induced acute liver injury C57BL/6 mouse model assessed as decrease in serum ALT content at 3 mg/kg, ip administered 2 hrs prior to APAP injection and measured after 6 hrs; format: functional, organism-based; settings: time 8.0 hrs
ES-2 [25] = assay: Inhibition of ferritinophagy in erastin-stimulated human ES2 cells assessed as increase in FTH1 gene expression at 0.01 to 1 uM by qRT-PCR analysis; format: functional, cell-based; settings: dose 0.01-1 µM
ES-2 [26] = assay: Inhibition of erastin-induced ferroptosis in human ES2 cells assessed as increase in intracellular GSH content at 1 uM measured after 8 to 10 hrs; format: functional, cell-based; settings: time 8-10 hrs

## c1cncc(-c2noc(-c3cccc4nc5ccccc5nc34)n2)c1
ES-2 [1]
  EC50: 240 nM

## FC(F)(F)c1cccc(-c2noc(-c3cccc4nc5ccccc5nc34)n2)c1
ES-2 [1]
  EC50: 2 nM
LX-2
  EC50: 13 nM

## CC(C)(C)c1ccc(-c2noc(-c3cccc4nc5ccccc5nc34)n2)cc1
ES-2 [1]
  EC50: 11 nM
LX-2
  EC50: 13 nM

## Cc1ccccc1-c1noc(-c2cccc3nc4ccccc4nc23)n1
ES-2 [1]
  EC50: 13 nM
LX-2
  EC50: 10 nM

## CC(C)(C)c1noc(-c2cccc3nc4ccccc4nc23)n1
ES-2 [1]
  EC50: 604 nM

## c1ccc2nc3c(-c4nc(-c5nccs5)no4)cccc3nc2c1
ES-2 [1]
  EC50: 6 nM

## CC(C)c1noc(-c2cccc3nc4ccccc4nc23)n1
ES-2 [1]
  EC50: 136 nM

## Fc1ccc(-c2noc(-c3cccc4nc5ccccc5nc34)n2)cc1
ES-2 [1]
  EC50: 2 nM
LX-2
  EC50: 2 nM

## Brc1cccc(-c2noc(-c3cccc4nc5ccccc5nc34)n2)c1
ES-2 [1]
  EC50: 2 nM
LX-2
  EC50: 6 nM

## Fc1cccc(-c2noc(-c3cccc4nc5ccccc5nc34)n2)c1
ES-2 [1]
  EC50: 2 nM
LX-2
  EC50: 2 nM

## CC(C)(C)c1cccc(-c2noc(-c3cccc4nc5ccccc5nc34)n2)c1
ES-2 [1]
  EC50: 3 nM
LX-2
  EC50: 7 nM

## Fc1ccc(-c2noc(-c3cccc4nc5ccccc5nc34)n2)cc1F
ES-2 [1]
  EC50: 9 nM
LX-2
  EC50: 11 nM

## Cc1noc(-c2cccc3nc4ccccc4nc23)n1
ES-2 [1]
  EC50: 268 nM

## COc1ccccc1-c1noc(-c2cccc3nc4ccccc4nc23)n1
ES-2 [1]
  EC50: 13 nM
LX-2
  EC50: 5 nM

## CCOc1ccccc1-c1noc(-c2cccc3nc4ccccc4nc23)n1
ES-2 [1]
  EC50: 23 nM
LX-2
  EC50: 10 nM

## c1ccc(-c2noc(-c3cccc4nc5ccccc5nc34)n2)cc1
ES-2 [1]
  EC50: 4 nM

## c1ccc2nc3c(-c4nc(C5CC5)no4)cccc3nc2c1
ES-2 [1]
  EC50: 214 nM

## c1ccc2nc3ccccc3nc2c1 [PHENAZINE]
ES-2 [1]
  EC50: 2820 nM

## FC(F)(F)c1ccccc1-c1noc(-c2cccc3nc4ccccc4nc23)n1
ES-2 [1]
  EC50: 39 nM
LX-2
  EC50: 15 nM

## c1ccc2nc3c(-c4nc(-n5cccn5)no4)cccc3nc2c1
ES-2 [1]
  EC50: 143 nM

## c1ccc2nc3c(-c4nc(-c5ccncc5)no4)cccc3nc2c1
ES-2 [1]
  EC50: 7 nM

## FC(F)(F)Oc1cccc(-c2noc(-c3cccc4nc5ccccc5nc34)n2)c1
ES-2 [1]
  EC50: 6 nM
LX-2
  EC50: 14 nM

## c1ccc2nc3c(-c4nc(-c5ccc(N6CCOCC6)cc5)no4)cccc3nc2c1
ES-2 [1]
  EC50: 1 nM
LX-2
  EC50: 1 nM

## Cc1cccc(-c2noc(-c3cccc4nc5ccccc5nc34)n2)c1
ES-2 [1]
  EC50: 7 nM
LX-2
  EC50: 4 nM

## c1cc(CN2CCCCC2)cc(-c2noc(-c3cccc4nc5ccccc5nc34)n2)c1
ES-2 [2]
  inhibition: inactive
ES-2 [3]
  inhibition: Dose-dependent-effect
ES-2 [4]
  inhibition: Active
ES-2 [5]
  inhibition: Active
ES-2 [6]
  inhibition: inactive
ES-2 [1]
  EC50: 0.712 nM
ES-2 [7]
  inhibition: inactive
[8]
  Activity: inactive
Mus musculus [9]
  Activity: Active
[10]
  Ratio EC50: 1000
[11]
  Activity: inactive
ES-2 [12]
  inhibition: inactive
ES-2 [13]
  inhibition: inactive
ES-2 [14]
  inhibition: inactive
THP-1
  inhibition: inactive
ES-2 [15]
  inhibition: inactive
ES-2 [16]
  inhibition: Active
ES-2 [17]
  inhibition: Active
Mus musculus [18]
  Activity: Active
HT-29
  inhibition: inactive
ES2
  Activity: inactive
ES-2 [19]
  inhibition: inactive
ES-2 [20]
  inhibition: inactive
Mus musculus [21]
  Activity: Active
ES-2 [22]
  inhibition: inactive
ES-2 [23]
  inhibition: Dose-dependent-effect
Mus musculus [24]
  Activity: Active
LX-2
  EC50: 0.925 nM
ES-2 [25]
  inhibition: Active

## Fc1ccccc1-c1noc(-c2cccc3nc4ccccc4nc23)n1
ES-2 [1]
  EC50: 5 nM
LX-2
  EC50: 1 nM

## FC(F)(F)c1ccc(-c2noc(-c3cccc4nc5ccccc5nc34)n2)cc1
ES-2 [1]
  EC50: 3 nM
LX-2
  EC50: 32 nM

## CCOC(=O)c1ccc(NC2CCCCC2)c(N)c1
ES-2 [1]
  EC50: 70.1 nM
THP-1
  inhibition: inactive
ES-2 [26]
  inhibition: inactive
HT-29
  inhibition: inactive
ES-2 [20]
  inhibition: inactive
LX-2
  EC50: 67 nM

## Cc1ccc(-c2noc(-c3cccc4nc5ccccc5nc34)n2)cc1
ES-2 [1]
  EC50: 130 nM
LX-2
  EC50: 2 nM

## c1ccc(-c2noc(-c3cccc4nc5ccccc5nc34)n2)nc1
ES-2 [1]
  EC50: 131 nM

## CN(C)c1cccc(-c2noc(-c3cccc4nc5ccccc5nc34)n2)c1
ES-2 [1]
  EC50: 1 nM
LX-2
  EC50: 2 nM
